Results: a melting point compilation (Tetko et al.)

Structure (SMILES)	melting point [°C]
O=C(O)c1cccc(NC(=O)C2CC2)c1	264 to 266
O=C(CCl)Nc1ccc2c(c1)OCCCO2	108 to 110
Cc1cc(CN)cc(C)c1O	99 to 101
Nc1ccc(Oc2cccc3cccnc23)cc1	203 to 205
Cc1cccc(C)c1Nc1nnc(S)s1	266 to 268
NC(=S)NCc1ccc(F)cc1	119 to 121
ClCc1nnc(-c2ccc(Br)s2)o1	109 to 111
Cc1ccc(-c2nnc(C(C)Cl)o2)cc1C (stereo not given)	86 to 88
N#CCC(=O)c1cccc(Br)c1	94 to 96
NC(=O)C(N)Cc1ccccc1 (stereo not given)	93 to 95
CCN(CC)c1ccc(-c2nnc(S)n2-c2ccccc2C)cc1	232 to 234
CC(C)(C)C1CNC(=O)C1 (stereo not given)	130 to 132
N#Cc1c(S)nc(CCc2ccccc2)c2c1CCCC2	224 to 226
CSc1cc(C(=O)O)oc1C	144 to 146
ClCc1noc(-c2ccc(Cl)cc2)n1	79 to 81
NC(=NO)c1ccc(N2CCCCC2)nc1	165 to 167
Nc1ccc2c(c1)NC(=O)CS2	218 to 222
O=C(O)c1oc2ccccc2c1Cn1cccn1	226 to 228

Structure (SMILES)	melting point [°C]
COc1ccccc1-c1cnc(CCl)o1	86 to 88
O=C(O)CC1SC(=Nc2ccccc2)NC1=O (stereo not given)	202 to 204
O=C(O)C1CCCN(C(=O)c2ccc(Br)c(F)c2)C1 (stereo not given)	157 to 159
CC1(CO)CCN(Cc2ccccc2)CC1	59 to 61
Clc1nnc(-c2ccccc2Cl)s1	93 to 95
COc1cc(-c2noc(CCl)n2)ccc1OC(F)F	46 to 50
O=C(O)c1nc(-c2cccs2)n(-c2ccccc2)n1	199 to 201
O=C(c1ccc(Cl)cc1)c1ccccn1	63 to 65
CC(C)c1ccc(C2(C(=O)O)CCCC2)cc1	153 to 155
COc1ccc(-c2n[nH]c(=O)c3ccccc23)cc1	238 to 240
CC(=O)N1CCCc2cc(C(=O)O)ccc21	184 to 186
Nc1ccccc1-c1[nH]nc2c1CCC2	128 to 130
CCN(C(C)=O)c1nc(CCl)cs1	82 to 84
O=c1[nH]nnn1-c1ccccc1	188 to 189
NCCNc1ccncc1	118 to 120
N#Cc1ccc(N2N=C(c3ccccc3)CC2=O)cc1	211 to 213
CNc1sccc1C#N	71 to 73

Other lines, results leading:

melting point [°C]	Structure (SMILES)
150 to 152	Cc1nc(C(=O)O)ccc1C#N
167 to 169	CC(C)(Nc1ccc([N+](=O)[O-])cc1)C(=O)O
97 to 99	O=C(O)CCC(=O)c1cc(Cl)ccc1Cl
124 to 126	O=C(O)CCS(=O)(=O)c1ccc2c(c1)CCC2
257 to 259	CCOC(=O)c1c[nH]c2cc(OC)cc(OC)c2c1=O
229 to 231	Cc1ccc(S(=O)(=O)NCCCN(C)C)cc1C(=O)O
111 to 113	Cc1c(N)cccc1S(=O)(=O)NC1CC1
232 to 234	CN(C)S(=O)(=O)c1ccc2[nH]c(CO)nc2c1
103 to 105	N#Cc1ccc(S(=O)(=O)N2CCCC2)cc1
47 to 49	CN(C)S(=O)(=O)c1cccc(N=C=S)c1
149 to 151	CCN(CC)S(=O)(=O)c1ccc(N2CCOCC2)c(C(=O)O)c1
137 to 139	CC(O)c1ccc2c(c1)NC(=O)CO2 (stereo not given)
208 to 210	Cc1cc2ncc(S(C)(=O)=O)c(N)n2n1
81 to 83	CCN(CC)S(=O)(=O)c1ccc(C(C)=O)cc1
136 to 138	COc1ccc(CNC(=O)n2ccnc2)cc1OC
153 to 155	Nc1ccc(S(N)(=O)=O)cc1Br
180 to 182	CC(=O)c1ccc(S(=O)(=O)NC(CC(N)=O)C(=O)O)cc1 (stereo not given)
172 to 174	COc1ccc(N(C)S(=O)(=O)c2cccc(C(=O)O)c2)cc1
275 to 277	Cc1ccc(Cl)c2c1NC(=O)C2=O
65 to 67	CCn1cc(S(=O)(=O)Cl)nc1C
